Assay results taken from patent US20220183282A1, “Fatty Acid Derivatives For Improving The Effect Of Agrochemical Actives” (priority 2019, published 2022).
Where two headings read alike, the source gives them in different places.

Experiments:
apple leaf cuticles [1] = assay: Penetration of MCPA through isolated apple leaf cuticles in the presence of test substances; settings: for Mean penetration for MCPA after time: MCPA 1.5 g/L in spray liquid, 25° C./56% rel. air humidity
Source text: (§1) Surfactants can affect the absorption of (active) ingredients through membranes such as skin, films or the plant cuticle. As a “finite-dose” application, it is known for the single administration or application of a solution, cream, gel etc. to a membrane that the absorption of active ingredient can be influenced by some additives such as surfactants even after wetting.
(§2) The principle of the method has been published and described in detail e.g. in WO-A-2005/194844 or WO2017211572 A1). The leaf cuticles were enzymatically isolated in the manner described in the literature from apple leaves of orchard trees in a commercial stone fruit growing facility near Frankfurt am Main in 2017. The stomata-free cuticles were first dried under air and then installed into stainless steel diffusion cells. After application to the original upper side of the leaf and evaporation of the test liquid, i.e. of the spray liquids of the active ingredients with or without the inventive substances or comparative compositions, the diffusion cells were transferred into thermostated blocks and charged with aqueous liquid. The water used to make up the aqueous test liquids was local tap water (of known composition). At regular intervals, aliquot samples were taken and the proportion of active ingredient penetrated was determined by HPLC or alternatively by radio-chemical method where radio-labelled active ingredient was used as tracer to determine the concentration. During the experiment, the temperature in the system (block, diffusion cells, liquids, etc.) and the air humidity above the spray deposit on the cuticle were controlled. In the experiment, relative air humidity was constant throughout at 56% relative air humidity (air over supersaturated calcium nitrate) at a constant 10° C. or 25° C. The analytical determination by means of HPLC (1290 Infinity, Agilent) was effected thereafter with a Kinetex column 30×2, 1 mm, 2.6μ C18 100 A (Phenomenex), taking a 20 μL aliquot as injection volume at the specified times. In each case, the geometric mean values of the penetration for intact membranes at the mean measurement times are given.

apple leaf cuticles [2] = assay: Penetration of Flufenacet through isolated apple leaf cuticles in the presence of test substances; settings: for Mean penetration for Flufenacet after time: Flufenacet 0.75 g/L in spray liquid, 10° C./61% rel. air humidity
Source text: as §1
as §2, with “In the experiment, relative air humidity was constant throughout at 56% relative air humidity (air over supersaturated calcium nitrate) at a constant 10° C. or 25° C.” left out

apple leaf cuticles [3] = assay: Penetration of Mesosulfuron-methyl through isolated apple leaf cuticles in the presence of test substances; type: in vitro ADME; settings: for Mean penetration for Mesosulfuron-methyl after time: Mesosulfuron-methyl 0.1 g/L in spray liquid, 10° C./61% rel. air humidity
Source text: as §1
as §2, with “In the experiment, relative air humidity was constant throughout at 56% relative air humidity (air over supersaturated calcium nitrate) at a constant 10° C. or 25° C.” left out

apple leaf cuticles [4] = assay: Penetration of lodosulfuron-methyl through isolated apple leaf cuticles in the presence of test substances; type: in vitro ADME; settings: for Mean penetration for lodosulfuron-methyl after time: lodosulfuron-methyl 0.1 g/L in spray liquid, 10° C./61% rel. air humidity
Source text: as §1
as §2, with “In the experiment, relative air humidity was constant throughout at 56% relative air humidity (air over supersaturated calcium nitrate) at a constant 10° C. or 25° C.” left out

apple leaf cuticles [5] = assay: Penetration of Mesotrione through isolated apple leaf cuticles in the presence of test substances
Source text: as §1
as §2, with “In each case, the geometric mean values of the penetration for intact membranes at the mean measurement times are given.” left out

apple leaf cuticles [6] = assay: Penetration of Imidacloprid through isolated apple leaf cuticles in the presence of test substances; settings: for Mean penetration for Imidacloprid after time: Imidacloprid 0.5 g/L in spray liquid
Source text: as §1, §2

apple leaf cuticles [7] = assay: Penetration of Milbemectin through isolated apple leaf cuticles in the presence of test substances; type: in vitro ADME; settings: for Mean penetration for Milbemectin after time: Milbemectin 0.03 g/L in spray liquid
Source text: as §1, §2

apple leaf cuticles [8] = settings: for Mean penetration for Benzyladenine after time: Benzyladenine 0.1 g/L in spray liquid
Source text: as §1, §2

SMILES: CCCCCCCCC(=O)OCCOCCOCCOCCOCCOCCOC [A1, Pelargonic acid 6 EO ester methyl ether]
- Mean penetration for MCPA after time (apple leaf cuticles [1]; test substance 0.3 g/L, 0.5 day): 34.2%
- Mean penetration for MCPA after time (apple leaf cuticles [1]; test substance 0.3 g/L, 1 day): 45.5%
- Mean penetration for MCPA after time (apple leaf cuticles [1]; test substance 1.0 g/L, 0.5 day): 46.9%
- Mean penetration for MCPA after time (apple leaf cuticles [1]; test substance 1.0 g/L, 1 day): 53.9%
- uptake of the active ingredient (MCPA), in words (apple leaf cuticles [1]; summary of Table 3): strongly increases the uptake
- Mean penetration for Flufenacet after time (apple leaf cuticles [2]; test substance 1.0 g/L, 1 day): 10.7%
- Mean penetration for Flufenacet after time (apple leaf cuticles [2]; test substance 1.0 g/L, 2 days): 16.9%
- Mean penetration for Flufenacet after time (apple leaf cuticles [2]; test substance 10 g/L, 1 day): 18.2%
- Mean penetration for Flufenacet after time (apple leaf cuticles [2]; test substance 10 g/L, 2 days): 28.0%
- uptake of the active ingredient (Flufenacet), in words (apple leaf cuticles [2]; summary of Table 4, compared to the commercial formulation): strongly increases the uptake
- Mean penetration for Mesosulfuron-methyl after time (apple leaf cuticles [3]; test substance 1.0 g/L, 1 day): 1.9%
- Mean penetration for Mesosulfuron-methyl after time (apple leaf cuticles [3]; test substance 1.0 g/L, 2 days): 3.6%
- Mean penetration for Mesosulfuron-methyl after time (apple leaf cuticles [3]; test substance 3.0 g/L, 1 day): 4.2%
- Mean penetration for Mesosulfuron-methyl after time (apple leaf cuticles [3]; test substance 3.0 g/L, 2 days): 5.2%
- Mean penetration for Mesosulfuron-methyl after time (apple leaf cuticles [3]; test substance 10 g/L, 1 day): 9.2%
- Mean penetration for Mesosulfuron-methyl after time (apple leaf cuticles [3]; test substance 10 g/L, 2 days): 10.9%
- uptake of the active ingredient (Mesosulfuron-methyl), in words (apple leaf cuticles [3]; summary of Table 5): strongly increases the uptake
- Mean penetration for lodosulfuron-methyl after time (apple leaf cuticles [4]; test substance 0.3 g/L, 1 day): 1.0%
- Mean penetration for lodosulfuron-methyl after time (apple leaf cuticles [4]; test substance 0.3 g/L, 2 days): 1.5%
- Mean penetration for lodosulfuron-methyl after time (apple leaf cuticles [4]; test substance 1.0 g/L, 1 day): 2.3%
- Mean penetration for lodosulfuron-methyl after time (apple leaf cuticles [4]; test substance 1.0 g/L, 2 days): 3.3%
- Mean penetration for lodosulfuron-methyl after time (apple leaf cuticles [4]; test substance 3.0 g/L, 1 day): 7.6%
- Mean penetration for lodosulfuron-methyl after time (apple leaf cuticles [4]; test substance 3.0 g/L, 2 days): 8.8%
- uptake of the active ingredient (lodosulfuron-methyl), in words (apple leaf cuticles [4]; summary of Table 6): strongly increases the uptake
- uptake of the active ingredient (Mesotrione), in words (apple leaf cuticles [5]): increases the uptake
- Mean penetration for Imidacloprid after time (apple leaf cuticles [6]; test substance 0.3 g/L, 1 day): 2.8%
- Mean penetration for Imidacloprid after time (apple leaf cuticles [6]; test substance 0.3 g/L, 4 days): 3.8%
- Mean penetration for Imidacloprid after time (apple leaf cuticles [6]; test substance 1.0 g/L, 1 day): 31.7%
- Mean penetration for Imidacloprid after time (apple leaf cuticles [6]; test substance 1.0 g/L, 4 days): 38.2%
- uptake of the agrochemical active (Imidacloprid), in words (apple leaf cuticles [6]; summary of Table 8): strongly increases the uptake
- Mean penetration for Milbemectin after time (apple leaf cuticles [7]; test substance 1.5 g/L, 1 day): 4.3%
- Mean penetration for Milbemectin after time (apple leaf cuticles [7]; test substance 1.5 g/L, 2 days): 4.2%
- Mean penetration for Milbemectin after time (apple leaf cuticles [7]; test substance 3.0 g/L, 1 day): 4.7%
- Mean penetration for Milbemectin after time (apple leaf cuticles [7]; test substance 3.0 g/L, 2 days): 5.4%
- uptake of the agrochemical active (Milbemectin), in words (apple leaf cuticles [7]; summary of Table 9, compared to the commercial formulation): strongly increases the uptake
- Mean penetration for Benzyladenine after time (apple leaf cuticles [8]; test substance 0.3 g/L, 1 day): 4.2%
- Mean penetration for Benzyladenine after time (apple leaf cuticles [8]; test substance 0.3 g/L, 2 days): 4.5%
- Mean penetration for Benzyladenine after time (apple leaf cuticles [8]; test substance 0.8 g/L, 1 day): 9.7%
- Mean penetration for Benzyladenine after time (apple leaf cuticles [8]; test substance 0.8 g/L, 2 days): 10.6%
- Mean penetration for Benzyladenine after time (apple leaf cuticles [8]; test substance 1.5 g/L, 1 day): 17.2%
- Mean penetration for Benzyladenine after time (apple leaf cuticles [8]; test substance 1.5 g/L, 2 days): 17.9%
- Mean penetration for Benzyladenine after time (apple leaf cuticles [8]; test substance 3.0 g/L, 1 day): 17.9%
- Mean penetration for Benzyladenine after time (apple leaf cuticles [8]; test substance 3.0 g/L, 2 days): 18.6%
- uptake of the agrochemical active (Benzyladenine), in words (apple leaf cuticles [8]; summary of Table 10): strongly increases the uptake
